From US8003595B2, “Amino acid sequences facilitating penetration of a substance of interest into cells and/or cell nuclei” (Cellectis, priority 2000, dated 2011)
Read-outs that look alike come from different tables or passages of the source. Marks after values point to notes of the source that are not given here. Where no end group is shown, it is not given here.

Tests used:
H1299 cells [1] = test: Penetration of peptide-cytochrome C conjugates (microscopy); assay type: cell-based, human; set-up: key: +++: intense; ++: positive; +: slightly positive; −: negative; conditions: 4 hours
Procedure: The penetration of the peptide-cytochrome C conjugates is evaluated with some conjugates prepared with peptides having a biotin on the N-terminal side. H1299 cells are cultivated in the presence of the different (biotinylated) peptide-cytochrome C conjugates at decreasing concentrations (100 to 25 μg/ml) in the culture medium for 4 hours at 37° C. At the end of the culture, the cells are washed three times with PBS, then fixed 15 minutes in ethanol at −20°. The penetration of the peptide-biotin-cytochrome C conjugate is evaluated after incubation for 60 minutes with some avidin coupled with peroxidase. The cells are then washed with PBS, and the activity of the peroxidase is indicated by diaminobenzidine in the presence of H2O2.
The penetration dependent on the concentration of conjugates in the culture medium is evaluated under the microscope by the intensity of the coloration expressed by crosses. Table 24 indicates the penetration of the peptide-cytochrome C conjugates in the cells.

H1299 cells [2] = test: Growth inhibition by peptide-cytochrome C conjugates (MTT); assay type: cell-based, human
Procedure: (§1) H1299 or HT29 cells (3×10^4 cells/well) are cultivated in 96-well plates for 48 hours at 37° C. in the complete culture medium RPMI with decreasing concentrations (200-3 μg/ml) of natural cytochrome C or cytochrome C conjugated with peptides added, and the culture is continued for 48 hours.
(§2) Table 25 gives the inhibition of growth of the cells by the […].

HT29 cells = test: as above; assay type: cell-based, human
Procedure: as §1, §2

[3] = ELISA fixation of biotinylated peptides on sensitized plates; assay type: binding; conditions: read-out: avidity (Kd), quantity of peptides necessary to obtain 50% fixation, Heparin; Table 5
Procedure: The capacity of peptides SEQ ID NO: 1 to 21 to attach themselves to DNA and heparin is evaluated on ELISA plates sensitized with DNA or heparin. Dilutions of biotinylated peptides are deposited on the plates and their fixation is shown using streptavidin conjugated with peroxidase. […] The avidity of each of the peptides for DNA or heparin is evaluated by the quantity (×10^−6 M) of peptides necessary to obtain 50% fixation.

[4] = as above; assay type: binding; conditions: read-out: avidity (Kd), quantity of peptides necessary to obtain 50% fixation, Chondroitin A; Table 5
[5] = as above; assay type: binding; conditions: read-out: avidity (Kd), quantity of peptides necessary to obtain 50% fixation, Chondroitin B; Table 5
[6] = as above; assay type: binding; conditions: read-out: avidity (Kd), quantity of peptides necessary to obtain 50% fixation, Chondroitin C; Table 5
H1299 cells [7] = test: Internalization of biotinylated peptide/S-PO complexes; assay type: cell-based, human; conditions: peptide: S-PO complexes of 4:1, peptide concentration of 1 μg
Procedure: A biotinylated/S-PO peptide or biotinylated/A-PO complex (A-PO for avidin-peroxidase) is prepared extemporaneously in two ways:
1) either in a peptide: S-PO or A-PO molar ratio of 4:1 (for example, 1.4 μg of peptide with a molecular weight of 3500 to 10 μg of S-PO; the weight of S-PO used varies depending on the peptides since their molecular weights are different).
2) or in a peptide: S-PO or A-PO molar ratio of 25:1 (for example 1.7 μg of peptide with a molecular weight of 3500 to 1 μg of S-PO).
The complexes are prepared by incubating the biotinylated peptide with S-PO or A-PO in PBS in a volume of 5 to 10 μl for 15 minutes at laboratory temperature. They are then diluted in 1 ml of complete culture medium, filtered on a 0.2 micron membrane and incubated with the cells for 4 hours. The cells are then washed three times with PBS.
To study the penetration of the complexes under a microscope, the cells are fixed as before for 15 minutes in ethanol at −20° C., they are washed with PBS, and the activity of the internalized peroxidase is shown by diaminobenzidine in the presence of H2O2. To measure the quantity of peptide/S-PO or A-PO complexes internalized, the cells are trypsinized, transferred into microtubes and counted. They are washed twice by centrifugation, then the residue is suspended in 200 μl of lysis buffer (Tris buffer, 0.1 M, pH8, 0.5% Nonidet). After 15 minutes, the peroxidase contained in the lysis buffer is dosed onto 96-well plates with ortho-dianisidine and H2O2 by comparison with a standard curve for S-PO. The reading is taken at 450 nm. The quantity contained in the different samples is expressed in picograms (pg) per 10^4 cells.
Table 7 below reports the results of evaluating the influence of SEQ ID NO: 1 on the penetration of peptides coupled to SEQ ID NO: 1 into H1299 cells, where
Concentration a: 25 peptides to one molecule of S-PO (1 μg),
Concentration b: 4 peptides to one molecule of S-PO (10 μg).

H1299 cells [8] = test: Internalization of covalent peptide-peroxidase conjugates; assay type: cell-based, human; conditions: Table 9; H1299; 0.2 μg/ml conjugate, 2 hours
Summary of the method: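 Peptides coupled via C-terminal cysteine to maleimide-activated peroxidase; uncoupled peptide removed by ultrafiltration. H1299 cells incubated 2 h with increasing conjugate concentrations, washed, lysed; internalized peptide quantified from lysate peroxidase against a conjugate standard curve, as pg/10^3 cells.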

3T3 = test: as above; assay type: cell-based, mouse; conditions: Table 9, 0.2 μg/ml conjugate, 2 hours
Procedure: (§3) To evaluate more directly the penetration of the peptides, avoiding the avidin-peroxidase bias, some of the peptides in sequences SEQ ID NO: 25 to 48 were conjugated covalently with cysteine in the C-terminal position of the peptide to peroxidase. The peptides were coupled with peroxidase in the following way:
(§4) One mg of peroxidase activated with maleimide (Sigma) in 100 μl of sodium phosphate buffer, NaCl 0.15 M, EDTA 5 mM, had 1 mg of peptide added to it. After 2 hours at laboratory temperature, β-mercaptoethanol is added to a final concentration of 1.5 mM for 15 minutes. The uncoupled peptide is eliminated by centrifugation on ultrafiltration membranes (cut-off threshold=30,000 Daltons, Sartorius), followed by three washings in sodium phosphate buffer 0.1 M, pH 7.4 containing 0.15 M NaCl.
(§5) It appears that the higher the concentration of peptide-peroxidase conjugate in the culture medium, the more the quantity internalized increases. To compare the penetration of the conjugates by cell type, the cells from different lines were incubated with 0.2 μg/ml of peptide-peroxidase conjugate for 2 hours, and the quantity of peroxidase dosed in the lysates. Table 9 and Table 9B below give the results expressed in pg/10^3 cells. The quantity of each peptide internalized in the different lines generally varies only from single to double.

HeLa = test: as above; assay type: cell-based, human; conditions: Table 9, 0.2 μg/ml conjugate, 2 hours
Procedure: as §3, §4, §5

[9] = test system: Enterococcus faecalis (ATCC 29212); test: microbe, parasite or virus in culture; assay type: cell-based; conditions: ATCC 29212
Procedure: (§6) The gram-positive bacterial strains are: Enterococcus faecalis (ATCC 29212), and Staphylococcus aureus (ATCC 25923) and the gram-negative strains are: Escherichia coli (ATCC 25922), Pseudomonas aeruginosa (ATCC 27853) and Salmonella typhimurim (clinical isolate), Salmonella typhiTy2 (WHO). The bacteria are cultured with shaking all night at 37° C., then recultured at a dilution of 1:50 in some fresh Luria-Bertani (LB) medium for 2 hours. The bacterial concentration is adjusted to […], and 50 μl is distributed in 96-well plates with an equal volume of peptides diluted half and half (256-0.5 μg/ml) in LB medium. […] To determine the minimum bactericide concentration, 10 μl from each well is spread on gelose plates in LB medium.
(§7) The results are expressed as the peptide concentration in MBC (μM).

[10] = test system: Escherichia coli (ATCC 25922); test: microbe, parasite or virus in culture; assay type: cell-based; conditions: ATCC 25922
Procedure: as §6, §7

[11] = test system: Pseudomonas aeruginosa (ATCC 27853); test: microbe, parasite or virus in culture; assay type: cell-based; conditions: ATCC 27853
Procedure: as §6, §7

[12] = test system: Staphylococcus aureus (ATCC 25923); test: microbe, parasite or virus in culture; assay type: cell-based; conditions: ATCC 25923
Procedure: as §6, §7

[13] = test system: Salmonella typhiTy2 (WHO); test: microbe, parasite or virus in culture; assay type: cell-based, S. typhi-Ty2; conditions: S. typhi-Ty2
Procedure: as §6, §7

[14] = test system: gram-positive and gram-negative bacterial strains; test: Antibacterial activity of cationic peptides, summary over strains; assay type: cell-based; conditions: summary of Table 29
Procedure: as §6
However, when peptide HPB13 (SEQ ID NO: 38) is coupled with peptide SEQ ID NO: 24, it enhances its activity by a factor of 50 to 100 (peptide SEQ ID NO: 45). […] None these peptides are active on gram-positive bacteria.

cells = test: Penetration of biotinylated peptides inside cells (microscopy, S-PO coloration); assay type: cell-based; conditions: biotinylated peptides 50 to 6 μg/ml, 1-18 hours, revealed with S-PO
Procedure: The cells are cultivated in the presence of the different peptides carrying, on the N-terminal side, biotin in decreasing concentrations (50 to 6 μg/ml) in the culture medium for variable times (1-18 hours).
At the end of the culture, the cells are washed three times with PBS (0.15 M NaCl buffered with 0.01 M potassium phosphate buffer pH 7.4) then fixed 15 minutes in ethanol at −20° C. The penetration of the peptide is evaluated after incubation for 30 minutes with streptavidin conjugated with peroxidase (abbreviated S-PO for streptavidin-peroxidase). Then, the S-PO is eliminated, and the cells are washed. […] With the other peptides, positive colorations, but of variable intensity, were noted.

[15] = test system: Salmonella typhimurim (clinical isolate); test: Antibacterial activity of cationic peptides (MBC); assay type: cell-based; conditions: S. typhimurium
Procedure: as §6, §7

HeLa cells = test: Penetration of peroxidase transported by peptide-IgG anti-PO transporter; assay type: cell-based, human; conditions: via the transporter [peptide-IgG anti-PO]
Procedure: Two mg of specific monoclonal IgG antibody of peroxidase or their fragment F(ab′)2 in 1 ml of potassium phosphate buffer 0.1 M, pH 7.4 are added to 110 μg of SMCC [succinimidyl 4-(N-maleimidomethyl)cyclohexane-1-carboxylate] in 11 μl of dimethylsulfoxide. The solution is incubated for 45 minutes at laboratory temperature. The excess reagent is eliminated by centrifugation on ultrafiltration membranes (cutoff threshold =10,000 Da, Vivascience), followed by three washings in sodium phosphate buffer 10 mM, pH 7 containing 0.5 M of NaCl and 5 mM of EDTA.
The peptide is then coupled in a molar ratio of 6 peptides to 1 IgG or 1 F(ab′)2 in the sodium phosphate buffer 10 mM, pH 7, containing 0.5 M of NaCl and 5 mM of EDTA for three hours at laboratory temperature. Then, the excess uncoupled peptide is totally eliminated by centrifugation on ultrafiltration membranes, as in the preceding step. These transporters [peptide-IgG anti-PO] are added to the peroxidase or the biotinylated peroxidase in some 0.5 M NaCl buffer. The solution is incubated for 1 hour at laboratory temperature. The molar ratio of this reaction is 2 PO/1 IgG or F(ab′)2. […]
To measure the quantity of PO internalized, the cells are trypsinized, transferred into microtubes and counted. […]

Natural cytochrome C: hemoprotein, single polypeptide chain of 104 amino acids
penetration, intensity of the coloration (H1299 cells [1]; 25 μg/ml): −
penetration, intensity of the coloration (H1299 cells [1]; 50 μg/ml): −
penetration, intensity of the coloration (H1299 cells [1]; 100 μg/ml): −*
% inhibition of growth (H1299 cells [2]; 3 μg/ml): 0%
% inhibition of growth (H1299 cells [2]; 6 μg/ml): 0%
% inhibition of growth (H1299 cells [2]; 12.5 μg/ml): 0%
% inhibition of growth (H1299 cells [2]; 25 μg/ml): 0%
% inhibition of growth (H1299 cells [2]; 50 μg/ml): 0%
% inhibition of growth (H1299 cells [2]; 100 μg/ml): 0* %
% inhibition of growth (HT29 cells; 12.5 μg/ml): 0%
% inhibition of growth (HT29 cells; 25 μg/ml): 0%
% inhibition of growth (HT29 cells; 50 μg/ml): 10%
% inhibition of growth (HT29 cells; 100 μg/ml): 19%
% inhibition of growth (HT29 cells; 200 μg/ml): 12* %

VKRGLKLVKRGLKLVKRGLKL [SEQ ID NO: 3]
Kd [3]: 41 nM
Kd [4]: 37 nM
Kd [5]: 41 nM
Kd [6]: 35 nM
S-PO internalized (H1299 cells [7]): 642 pg/10^4 cells
Internalization of Peptide-peroxidase (H1299 cells [8]): 17.7 pg/10^3 cells
Internalization of Peptide-peroxidase (3T3): 24.6 pg/10^3 cells
Internalization of Peptide-peroxidase (HeLa): 11.2 pg/10^3 cells
MBC [9]: >106 µM
MBC ([10]; read-out: MBC): 13.25 µM
MBC [11]: 26.5 µM
MBC [12]: >106 µM
MBC [13]: 1.65 µM
bactericide / anti-microbial activity [14]: has bactericide activity

VKRGLKLVKRGLKL [SEQ ID NO: 2]
intracellular cytochemical coloration (cells): Faint coloration
S-PO internalized (H1299 cells [7]): 84 pg/10^4 cells
MBC [9]: >160 µM
MBC [10]: >160* μM
MBC [11]: >160 µM
MBC [12]: >160 µM
MBC [15]: >160 µM
bactericide / anti-microbial activity [14]: not active

B1: Peroxidase (PO): peroxidase transported by the transporter [peptide-IgG anti-PO] (protein)
chain: QLTPTFYDNSCPNVSNIVRDTIVNELRSDPRIAASILRLHFHDCFVNGCDASILLDNTTSFRTEKDAFGNANSARGFPVIDRMKAAVESACPRTVSCADLLTIAAQQSVTLAGGPSWRVPLGRRDSLQAFLDLANANLPAPFFTLPQLKDSFRNVGLNRSSDLVALSGGHTFGKNQCRFIMDRLYNFSNTGLPDPTLNTTYLQTLRGLCPLNGNLSALVDFDLRTPTIFDNKYYVNLEEQKGLIQSDQELFSSPNATDTIPLVRSFANSTQTFFNAFVEAMDRMGNITPLTGTQGQIRLNCRVVNSNS
Quantity of molecules internalized (HeLa cells): 2100 pg/10^4 cells
